What was measured:
Assay type in all cases: cell-based
[1] = biological target: T1, human TASK-1 (Homo sapiens (Human), UniProt O14649); experiment: Inhibition of recombinant TASK-1 in stably transfected CHO cells (voltage-sensitive dye, FLIPR); settings: depolarization induced by 40 mM potassium chloride, Table 2A
Method: (§1) B-2. Inhibition of Recombinant TASK-1 and TASK-3 In Vitro
(§2) The investigations on the inhibition of the recombinant TASK-1 and TASK-3 channels were carried out using stably transfected CHO cells. Here, the compounds according to the invention were tested with administration of 40 mM of potassium chloride in the presence of a voltage-sensitive dye using the method described in detail in the following references [Whiteaker et al., Validation of FLIPR membrane potential dye for high-throughput screening of potassium channel modulators, J. Biomol. Screen. 6 (5), 305-312 (2001); Molecular Devices FLIPR Application Note: Measuring membrane potential using the FLIPR® membrane potential assay kit on Fluorometric Imaging Plate Reader (FLIPR®) systems, http://www.moleculardevices.com/reagents-supplies/assay-kits/ion-channels/flipr-membrane-potential-assay-kits]. The activity of the test substances was determined as their ability to inhibit a depolarization induced in the recombinant cells by 40 mM potassium chloride. The concentration which can block half of this depolarization is referred to as IC50.

[2] = biological target: T1, human TASK-1; experiment: Two-electrode voltage clamp analysis of human TASK-1 channels in Xenopus laevis oocytes
Method: (§3) B-1. In Vitro Electrophysiological Analysis of the Human TASK-1 and TASK-3 Channels Via Two-Electrode Voltage Clamp Technique in Xenopus laevis Oocytes
(§4) Xenopus laevis oocytes were selected as described elsewhere in an exemplary manner [Decher et al., FEBS Lett. 492, 84-89 (2001)]. Subsequently, the oocytes were injected with 0.5-5 ng of a cRNA solution coding for TASK-1 or TASK-3. For the electrophysiological analysis of the channel proteins expressed in the oocytes, the two-electrode voltage clamp technique [Stühmer, Methods Enzymol. 207, 319-339 (1992)] was used. The measurements were carried out as described [Decher et al., FEBS Lett. 492, 84-89 (2001)] at room temperature (21-22° C.) using a Turbo TEC 10CD amplifier (NPI), recorded at 2 kHz and filtered with 0.4 kHz. Substance administration was performed using a gravitation-driven perfusion system. Here, the oocyte is located in a measuring chamber and exposed to the solvent stream of 10 ml/min. The level in the measuring chamber is monitored and regulated by sucking off the solution using a peristaltic pump.

[3] = biological target: T2, human TASK-3 (Homo sapiens (Human), UniProt Q9NPC2); experiment: Inhibition of recombinant TASK-3 in stably transfected CHO cells (voltage-sensitive dye, FLIPR); settings: depolarization induced by 40 mM potassium chloride, Table 2A
Method: as §1, §2

[4] = biological target: T2, human TASK-3; experiment: Two-electrode voltage clamp analysis of human TASK-3 channels in Xenopus laevis oocytes
Method: as §3, §4

[5] = Xenopus laevis oocytes, two-electrode voltage clamp, room temperature, Table 1A
[6] = oocytes, voltage clamp, Table 1B
[7] = oocytes, voltage clamp, comparative compounds, Table 1B

T2 sequence (Q9NPC2 whole entry): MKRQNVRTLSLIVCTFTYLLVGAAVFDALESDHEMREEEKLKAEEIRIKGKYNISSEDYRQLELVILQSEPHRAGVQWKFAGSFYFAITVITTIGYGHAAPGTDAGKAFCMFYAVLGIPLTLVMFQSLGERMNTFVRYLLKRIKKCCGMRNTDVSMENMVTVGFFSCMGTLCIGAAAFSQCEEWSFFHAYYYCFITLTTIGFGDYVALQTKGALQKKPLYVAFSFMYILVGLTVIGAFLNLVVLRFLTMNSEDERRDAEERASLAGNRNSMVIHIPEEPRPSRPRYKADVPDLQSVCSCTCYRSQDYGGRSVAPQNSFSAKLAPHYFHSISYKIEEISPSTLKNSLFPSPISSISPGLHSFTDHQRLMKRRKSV
T1 sequence (O14649 whole entry): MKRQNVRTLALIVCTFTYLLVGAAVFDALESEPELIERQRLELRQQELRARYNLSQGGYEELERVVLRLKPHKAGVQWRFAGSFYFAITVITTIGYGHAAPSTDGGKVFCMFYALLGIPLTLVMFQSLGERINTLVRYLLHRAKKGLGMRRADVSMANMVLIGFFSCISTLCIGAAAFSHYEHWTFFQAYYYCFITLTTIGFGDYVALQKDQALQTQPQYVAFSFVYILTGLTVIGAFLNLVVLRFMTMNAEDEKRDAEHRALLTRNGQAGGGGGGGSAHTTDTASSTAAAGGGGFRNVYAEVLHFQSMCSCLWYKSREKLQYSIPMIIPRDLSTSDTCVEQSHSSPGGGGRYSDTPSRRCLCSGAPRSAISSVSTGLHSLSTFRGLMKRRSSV

SMILES | IC50 [1] [nM] | IC50 [2, 5] [nM] | IC50 [3] [nM] | IC50 [4, 5] [nM] | inhibition at 1 µM [2, 6] [%] | inhibition at 10 µM [2, 6] [%] | IC50 [2, 7] [nM] | inhibition at 1 µM [4, 6] [%] | inhibition at 10 µM [4, 6] [%] | IC50 [4, 7] [nM]
CC(C)c1ccc(-c2nc3ccccn3c2CN2CCN(C(=O)C3CCCC3)CC2)cc1 [Example 54] | 479 | 4.3 ± 1.3 | 225 | 38.2 ± 1.4 |  |  |  |  |  | 
O=C(c1cccc(F)c1)N1CCN(Cc2c(-c3ccc(Cl)cc3)nc3ccc(C4CC4)cn23)CC1 [drawing 123] |  |  |  |  | 30 ± 3.3 | 59.9 ± 1.7 | > 1000 | 29.7 ± 2.6 | 56.1 ± 4.6 | > 1000
O=C(c1ccccc1Cl)N1CCN(Cc2c(-c3ccc(Cl)cc3)nc3ccc(-c4ccccc4)cn23)CC1 [drawing 122] |  |  |  |  | 6.3 ± 1.4 | 16.9 ± 3.2 | > 30000 | 9.3 ± 3.4 | 19.4 ± 4.6 | > 30000
O=C(C1CCCC1)N1CCN(Cc2c(-c3ccc(Br)cc3)nc3ccccn23)CC1 [Example 1, (4-{[2-(4-Bromophenyl)imidazo[,2-a]pyridin-3-yl]methyl}piperazin-1-yl)(cyclopentyl)methanone] | 77 | 7.9 ± 0.5 | 17 | 1.04 ± 0.23 |  |  |  |  |  | 
O=C(c1ccccc1F)N1CCN(Cc2c(-c3ccc(Br)cc3)nc3ccccn23)CC1 [Example 4, (4-{[2-(4-Bromophenyl)imidazo [1,2-a]pyridin-3-yl]methyl}piperazin-1-yl)(2-fluorophenyl)methanone] | 172 | 9.7 ± 0.9 | 46 | 15 ± 2.1 |  |  |  |  |  | 
O=C(c1ccncc1)N1CCN(Cc2c(-c3ccc(Cl)cc3)nc3ccc(C4CC4)cn23)CC1 [drawing 124] |  |  |  |  | 47.2 ± 1.5 | 49.9 ± 3.3 | > 1000 | 12.1 ± 1.8 | 56.1 ± 2.3 | > 1000
COc1cccc(-c2nc3ccccn3c2CN2CCN(C(=O)C3CCC3)CC2)c1 [drawing 125] |  |  |  |  | 49.6 ± 6.7 | 75 ± 3.5 | > 1000 | 34.6 ± 2.7 | 73.6 ± 3.7 | > 1000
COc1cccc(C(=O)N2CCN(Cc3c(-c4ccc(C(C)C)cc4)nc4ccccn34)CC2)n1 [Example 55] | 490 | 45 ± 6.7 | 141 | 79.6 ± 10.8 |  |  |  |  |  | 
O=C(C1CCCC1)N1CCN(Cc2c(-c3ccc(Cl)cc3)nc3ccccn23)CC1 [Example 2, (4-{[2-(4-Chlorophenyl)imidazo [1,2-a]pyridin-3-yl]methyl}piperazin-1-yl)(cyclopentyl)methanone] | 63 | 2.8 ± 1.1 | 20 | 21.8 ± 2.1 |  |  |  |  |  | 
CC(C)Oc1cccc(C(=O)N2CCN(Cc3c(-c4ccc(Cl)cc4)nc4ccccn34)CC2)n1 [Example 39] | 440 | 13.4 ± 0.9 | 56 | 6.2 ± 1.1 |  |  |  |  |  | 
O=C(c1cnccn1)N1CCN(Cc2c(-c3ccc(Cl)cc3)nc3ccc(C4CC4)cn23)CC1 [drawing 126] |  |  |  |  | 27.7 ± 4.5 | 55.2 ± 1.7 | > 1000 | 8.1 ± 2.6 | 48.2 ± 4.3 | > 10000
COc1ccc(Cl)c(C(=O)N2CCN(Cc3c(-c4ccc(Cl)cc4)nc4ccccn34)CC2)n1 [Example 43] | 220 |  | 10 |  |  |  |  |  |  | 
O=C(C1CCC1)N1CCN(Cc2c(-c3ccc(Br)cc3)nc3ccccn23)CC1 [Example 11] | 378 |  | 240 |  |  |  |  |  |  | 

From patent publication US10759794B2, “2-phenyl-3-(piperazinomethyl)imidazo[1,2-A]pyridine derivatives as blockers of task-1 and task-2 channels, for the treatment of sleep-related breathing disorders” (BAYER PHARMA AKTIENGESELLSCHAFT, priority 2015, dated 2020)
